Assays:
Matrilysin = target: T1, Matrilysin (Homo sapiens, UniProt P09237); assay: Inhibition of human matrix metalloprotease-7
T1 sequence (P09237 whole entry): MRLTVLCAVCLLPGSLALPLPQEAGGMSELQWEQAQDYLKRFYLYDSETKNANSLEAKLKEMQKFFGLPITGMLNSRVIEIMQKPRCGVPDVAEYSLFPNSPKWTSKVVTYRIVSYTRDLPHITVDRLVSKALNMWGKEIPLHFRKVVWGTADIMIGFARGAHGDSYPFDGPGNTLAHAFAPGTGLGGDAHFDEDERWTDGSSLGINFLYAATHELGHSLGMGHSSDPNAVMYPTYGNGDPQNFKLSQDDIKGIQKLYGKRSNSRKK

[1] = target: Matrix metalloproteinase-14 (Homo sapiens, UniProt P50281); assay: Inhibition of human matrix metalloprotease-14
Stromelysin-1 = Stromelysin-1 (Homo sapiens, UniProt P08254); assay: Inhibition of human matrix metalloprotease-3
[2] = target: 72 kDa type IV collagenase (Homo sapiens, UniProt P08253); assay: Inhibition of human matrix metalloprotease-2
[3] = target: Matrix metalloproteinase-9 (Homo sapiens, UniProt P14780); assay: Inhibition of human matrix metalloprotease-9
Interstitial collagenase = target: T2, Interstitial collagenase (Homo sapiens, UniProt P03956); assay: Inhibition of human matrix metalloprotease-1
T2 sequence (P03956 whole entry): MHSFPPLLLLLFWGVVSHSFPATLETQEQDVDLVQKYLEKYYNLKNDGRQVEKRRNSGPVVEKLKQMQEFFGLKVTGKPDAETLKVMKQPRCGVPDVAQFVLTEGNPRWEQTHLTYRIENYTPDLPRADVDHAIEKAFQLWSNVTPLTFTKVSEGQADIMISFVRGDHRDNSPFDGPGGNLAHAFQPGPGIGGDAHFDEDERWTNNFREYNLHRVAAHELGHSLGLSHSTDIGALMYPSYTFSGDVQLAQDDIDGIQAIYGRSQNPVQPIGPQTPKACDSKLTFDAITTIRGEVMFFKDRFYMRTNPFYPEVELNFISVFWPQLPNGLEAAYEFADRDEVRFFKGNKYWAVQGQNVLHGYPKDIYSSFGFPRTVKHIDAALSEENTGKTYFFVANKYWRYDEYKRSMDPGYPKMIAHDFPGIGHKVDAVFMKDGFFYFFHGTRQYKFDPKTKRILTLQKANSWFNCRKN

Neutrophil collagenase = Neutrophil collagenase (Homo sapiens, UniProt P22894); assay: Inhibition of human matrix metalloprotease-8
Chain of Neutrophil collagenase (P22894 whole entry): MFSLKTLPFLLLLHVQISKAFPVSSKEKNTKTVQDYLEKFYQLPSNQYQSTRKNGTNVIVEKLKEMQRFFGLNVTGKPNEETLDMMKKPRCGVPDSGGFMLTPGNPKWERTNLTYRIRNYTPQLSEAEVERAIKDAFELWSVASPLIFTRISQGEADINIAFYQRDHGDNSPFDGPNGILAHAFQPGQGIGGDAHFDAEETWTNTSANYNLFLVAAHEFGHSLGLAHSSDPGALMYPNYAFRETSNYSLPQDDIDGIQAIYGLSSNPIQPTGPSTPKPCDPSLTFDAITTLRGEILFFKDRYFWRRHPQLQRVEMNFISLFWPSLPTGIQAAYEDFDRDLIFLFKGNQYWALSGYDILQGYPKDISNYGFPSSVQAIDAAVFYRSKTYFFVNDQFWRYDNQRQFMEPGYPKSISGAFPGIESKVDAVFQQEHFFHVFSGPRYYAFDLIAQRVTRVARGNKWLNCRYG

Chain of Matrix metalloproteinase-9 (P14780 whole entry): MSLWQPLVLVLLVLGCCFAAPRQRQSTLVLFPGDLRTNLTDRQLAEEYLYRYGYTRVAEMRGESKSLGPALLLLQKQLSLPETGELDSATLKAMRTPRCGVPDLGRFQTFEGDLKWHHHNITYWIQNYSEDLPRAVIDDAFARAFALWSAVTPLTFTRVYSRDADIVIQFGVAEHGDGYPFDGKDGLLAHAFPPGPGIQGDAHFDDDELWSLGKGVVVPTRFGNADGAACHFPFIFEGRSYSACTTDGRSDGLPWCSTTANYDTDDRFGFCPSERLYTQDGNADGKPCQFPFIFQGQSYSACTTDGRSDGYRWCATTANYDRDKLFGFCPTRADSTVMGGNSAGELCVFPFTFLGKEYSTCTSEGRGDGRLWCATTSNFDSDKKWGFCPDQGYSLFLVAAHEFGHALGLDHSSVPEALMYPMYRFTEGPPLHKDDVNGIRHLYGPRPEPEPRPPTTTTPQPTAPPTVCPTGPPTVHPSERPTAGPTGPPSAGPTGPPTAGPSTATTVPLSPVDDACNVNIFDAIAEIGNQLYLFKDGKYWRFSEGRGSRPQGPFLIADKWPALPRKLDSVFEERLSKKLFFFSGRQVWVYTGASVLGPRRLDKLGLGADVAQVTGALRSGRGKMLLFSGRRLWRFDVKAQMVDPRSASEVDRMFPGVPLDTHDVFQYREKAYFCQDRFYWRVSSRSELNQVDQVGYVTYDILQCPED
Chain of 72 kDa type IV collagenase (P08253 whole entry): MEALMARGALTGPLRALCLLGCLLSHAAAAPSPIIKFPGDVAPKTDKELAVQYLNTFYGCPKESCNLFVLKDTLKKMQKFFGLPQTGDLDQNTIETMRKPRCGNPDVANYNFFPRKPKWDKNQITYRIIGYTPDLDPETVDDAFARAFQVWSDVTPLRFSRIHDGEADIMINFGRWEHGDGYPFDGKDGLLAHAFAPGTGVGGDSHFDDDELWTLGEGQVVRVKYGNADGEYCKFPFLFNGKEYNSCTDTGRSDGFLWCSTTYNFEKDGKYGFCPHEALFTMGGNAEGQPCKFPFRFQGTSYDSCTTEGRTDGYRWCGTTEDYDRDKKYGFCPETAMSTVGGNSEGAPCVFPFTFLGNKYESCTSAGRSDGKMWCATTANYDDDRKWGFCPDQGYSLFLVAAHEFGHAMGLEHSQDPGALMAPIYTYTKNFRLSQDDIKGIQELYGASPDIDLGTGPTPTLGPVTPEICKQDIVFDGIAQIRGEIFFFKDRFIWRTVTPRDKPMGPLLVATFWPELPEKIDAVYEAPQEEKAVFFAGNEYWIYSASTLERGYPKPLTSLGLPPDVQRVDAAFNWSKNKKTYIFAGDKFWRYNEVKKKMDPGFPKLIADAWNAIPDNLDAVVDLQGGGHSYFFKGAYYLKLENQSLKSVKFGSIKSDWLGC
Chain of Stromelysin-1 (P08254 whole entry): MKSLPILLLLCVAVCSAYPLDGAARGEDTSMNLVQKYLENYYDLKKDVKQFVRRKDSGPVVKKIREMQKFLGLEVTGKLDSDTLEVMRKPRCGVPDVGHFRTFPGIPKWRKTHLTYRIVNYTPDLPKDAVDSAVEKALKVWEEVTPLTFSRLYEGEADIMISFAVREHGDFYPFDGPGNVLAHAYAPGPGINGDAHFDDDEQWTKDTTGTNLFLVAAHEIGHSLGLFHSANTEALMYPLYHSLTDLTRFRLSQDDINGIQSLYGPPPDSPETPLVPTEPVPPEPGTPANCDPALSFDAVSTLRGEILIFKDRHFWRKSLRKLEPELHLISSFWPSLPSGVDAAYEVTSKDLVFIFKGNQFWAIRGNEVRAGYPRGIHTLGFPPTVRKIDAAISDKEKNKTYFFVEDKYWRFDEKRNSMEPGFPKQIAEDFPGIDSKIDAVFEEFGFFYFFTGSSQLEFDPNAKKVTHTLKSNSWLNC

| IC50 (Matrilysin) | IC50 [1] | IC50 (Stromelysin-1) | IC50 [2] | IC50 [3] | IC50 (Neutrophil collagenase) | Structure (SMILES) | IC50 (Interstitial collagenase) |
| --- | --- | --- | --- | --- | --- | --- | --- |
| 100 nM | 8.9 nM |  |  |  |  | COc1ccc(S(=O)(=O)N(Cc2cccnc2)[C@@H](C(=O)NO)C(C)C)cc1 [CGS-27023A] |  |
| > 11100 nM | 9.8 nM | 50 nM | 0.09 nM | 6.7 nM | 1.6 nM | CC(C)ON([C@@H](C(=O)NO)C(C)C)S(=O)(=O)c1ccc(-c2ccccc2)cc1 |  |
|  | > 300 nM |  | 935 nM | 4520 nM |  | CC(C)ON([C@H](CCN)C(=O)NO)S(=O)(=O)c1ccc(-c2ccccc2)cc1 |  |
|  |  |  | 1.8 nM | 19.6 nM |  | CC(C)ON(C(C(=O)NO)C(C)C)S(=O)(=O)c1ccc(-c2ccccc2)cc1 (racemic) |  |
| > 24400 nM | 7.7 nM | 130 nM | 0.41 nM | 16 nM |  | CC(C)ON([C@H](CCNC(=O)OCc1ccccc1)C(=O)NO)S(=O)(=O)c1ccc(-c2ccccc2)cc1 | > 3000 nM |
| 54 nM | 0.3 nM |  |  |  |  | CC1(C)SCCN(S(=O)(=O)c2ccc(Oc3ccncc3)cc2)[C@H]1C(=O)NO [PRINOMASTAT] |  |
|  |  |  | 10.3 nM | 13 nM |  | CC(C)ON([C@H](C(=O)NO)C(C)C)S(=O)(=O)c1ccc(-c2ccccc2)cc1 |  |

| Structure (SMILES) | IC50 (Matrilysin) | IC50 [1] | IC50 (Stromelysin-1) | IC50 [2] | IC50 [3] | IC50 (Neutrophil collagenase) | IC50 (Interstitial collagenase) |
| --- | --- | --- | --- | --- | --- | --- | --- |
| CC(C)ON(CC(=O)NO)S(=O)(=O)c1ccc(-c2ccccc2)cc1 | > 50000 nM | > 10000 nM | 4500 nM | 12 nM | 200 nM |  | > 50000 nM |
